Patent publication US20230355622A1, “METHODS OF CHEMOVACCINATION AGAINST PLASMODIUM INFECTIONS” (Merck Sharp & Dohme LLC, priority 2020, published 2023)
Read-outs that look alike come from different tables or passages of the source.

System: parasite
Assay: Parasite LDH growth assay (Parasite Assay), antiparasite potency
Format: cell-based
Conditions: parasite LDH growth assay, ring stage parasites, 72 hours incubation at 37° C., read-out: EC50
Experimental: Assessing Antiparasite Potency in a Parasite LDH Growth Assay (Parasite Assay)
The parasite stock was maintained at 4% haematocrit in RPMI-Hepes media buffered with sodium bicarbonate and supplemented with 5% heat inactivated human serum and 0.5% albumax.
On the day of assay set up, a blood smear of the parasite culture was Giemsa stained and counted. The parasitemia was adjusted to 0.7% rings and the haematocrit was diluted to 2% in RPMI-Hepes media buffered with sodium bicarbonate and supplemented with 5% heat inactivated human serum and 0.5% albumax. 30 ul of diluted parasites are then added into 10 ul of media+compound in pre-prepared Greiner TC assay plates. Parasite assay plates were placed in gassed humidified boxes in single layer and allowed to incubate at 37° C. for 72 hours. After 72 hours growth, assay plates are sealed with parafilm and frozen flat, in single file at −80° C. overnight. On the following day, assay plates are allowed to thaw at room temperature for 4 hours to which an LDH assay is performed to measure parasite growth.

SMILES	EC50 (72 h) [nM]	EC50 [nM]
CC(C)[C@]1(C)CC(=O)N([C@@H]2CCOc3ccc(C(=O)NC4c5ccccc5OC(C)(C)C4O)cc32)C(=N)N1 (single isomer, unassigned) [Example 11A]	0.9	–
CCC1C[C@@H](N2C(=N)NC(CC)(CC)CC2=O)c2cc(C(=O)NC3c4ccccc4OC(C)(C)C3O)ccc2O1 (single isomer, unassigned) [Example 13A]	0.8	–
CCC1C[C@@H](N2C(=N)NC(CC)(CC)CC2=O)c2cc(C(=O)NC3c4ccccc4OC(C)(C)C3O)ccc2O1 (single isomer, unassigned) [Example 13B]	54	–
CCC1(CC)CC(=O)N(C2c3cc(C(=O)N[C@@H]4c5ccccc5OC(C)(C)[C@H]4O)ccc3CC2OC)C(=N)N1 (single isomer, unassigned) [Example 251A]	–	0.4
CCC1(CC)CC(=O)N([C@@H]2CCOc3ccc(C(=O)NC4c5cc(F)ccc5C[C@H]4O)cc32)C(=N)N1 (stereo in doubt) [Example 148, (4R)-4-(4,4-diethyl-2-imino-6-oxo-hexahydropyrimidin-1-yl)-N-[(1R,2R)-6-fluoro-2-hydroxy-indan-1-yl]chromane-6-carboxamide]	2.7	–
CCC1(CC)CC(=O)N(C2CCOc3ccc(C(=O)N[C@@H]4c5ccccc5OC(C)(C)[C@H]4O)cc32)C(=N)N1 (stereo partly drawn) [Example 2A, 4-(4,4-diethyl-2-imino-6-oxotetrahydropyrimidin-1(2H)-yl)-N-((3S,4R)-3-hydroxy-2,2-dimethylchroman-4-yl)chroman-6-carboxamide]	0.5	–
CCC1(CC)CC(=O)N([C@@H]2CCOc3ccc(C(=O)N[C@H]4CC(C)(C)Oc5ccc(F)cc54)cc32)C(=N)N1 [Example 7A, (R)-4-(4,4-diethyl-2-imino-6-oxotetrahydropyrimidin-1(2H)-yl)-N-((S)-6-fluoro-2,2-dimethylchroman-4-yl)chromane-6-carboxamide]	0.4	–
CCC1(CC)CC(=O)N([C@@H]2CCOc3ccc(C(=O)NC4c5ccccc5OCC4O)cc32)C(=N)N1 (stereo partly drawn) [Example 8A, (4R)-4-(4,4-diethyl-2-imino-6-oxotetrahydropyrimidin-1(2H)-yl)-N-(3-hydroxychroman-4-yl)chromane-6-carboxamide]	–	10
CCC1C[C@@H](N2C(=N)NC(CC)(CC)CC2=O)c2cc(C(=O)N[C@@H]3c4ccccc4C[C@H]3O)ccc2O1 (stereo partly drawn) [Example 9A, (4R)-4-(4,4-diethyl-2-imino-6-oxotetrahydropyrimidin-1(2H)-yl)-2-ethyl-N-((1R,2R)-2-hydroxy-2,3-dihydro-1H-inden-1-yl)chromane-6-carboxamide]	–	0.9
CC(C)[C@]1(C)CC(=O)N([C@@H]2CCOc3ccc(C(=O)N[C@H]4CC(C)(C)Oc5ccccc54)cc32)C(=N)N1 [Example 10A, (R)-N-((S)-2,2-dimethylchroman-4-yl)-4-((S)-2-imino-4-isopropyl-4-methyl-6-oxotetrahydropyrimidin-1(2H)-yl)chromane-6-carboxamide]	0.5	–
CCC1(CC)CC(=O)N([C@@H]2CCOc3ccc(C(=O)N[C@H]4CC(C)(C)Oc5ccc(Br)cc54)cc32)C(=N)N1 [Example 14A, (R)-N-((S)-6-bromo-2,2-dimethylchroman-4-yl)-4-(4,4-diethyl-2-imino-6-oxotetrahydropyrimidin-1(2H)-yl)chromane-6-carboxamide]	1	–
CCC1(CC)CC(=O)N([C@@H]2CCOc3ccc(C(=O)N[C@@H]4c5cc(Br)ccc5OC(C)(C)[C@H]4O)cc32)C(=N)N1 [Example 15A, (R)-N-((3S,4R)-6-bromo-3-hydroxy-2,2-dimethylchroman-4-yl)-4-(4,4-diethyl-2-imino-6-oxotetrahydropyrimidin-1(2H)-yl)chromane-6-carboxamide]	0.3	–
CCC1(CC)CC(=O)N([C@@H]2CC(COC)Oc3ccc(C(=O)N[C@H]4CC(C)(C)Oc5ccccc54)cc32)C(=N)N1 (stereo partly drawn) [Example 16A, (4R)-4-(4,4-diethyl-2-imino-6-oxotetrahydropyrimidin-1(2H)-yl)-N-((S)-2,2-dimethylchroman-4-yl)-2-(methoxymethyl)chromane-6-carboxamide]	–	0.6
CCC1(CC)CC(=O)N([C@@H]2CC(COC)Oc3ccc(C(=O)N[C@@H]4c5ccccc5OC(C)(C)[C@H]4O)cc32)C(=N)N1 (stereo partly drawn) [Example 18A, (4R)-4-(4,4-diethyl-2-imino-6-oxotetrahydropyrimidin-1(2H)-yl)-N-((3S,4R)-3-hydroxy-2,2-dimethylchroman-4-yl)-2-(methoxymethyl)chromane-6-carboxamide]	0.8	–
CCC1(CC)CC(=O)N([C@@H]2CCOc3ccc(C(=O)N[C@@H]4c5cc(Cl)ccc5OC(C)(C)[C@H]4O)cc32)C(=N)N1 [Example 19A, (R)-N-((3S,4R)-6-chloro-3-hydroxy-2,2-dimethylchroman-4-yl)-4-(4,4-diethyl-2-imino-6-oxotetrahydropyrimidin-1(2H)-yl)chromane-6-carboxamide]	0.3	–
CCC1(CC)CC(=O)N([C@@H]2CCOc3ccc(C(=O)N[C@@H]4c5cc(C#N)ccc5OC(C)(C)[C@H]4O)cc32)C(=N)N1 [Example 20A, (R)-N-((3S,4R)-6-cyano-3-hydroxy-2,2-dimethylchroman-4-yl)-4-(4,4-diethyl-2-imino-6-oxotetrahydropyrimidin-1(2H)-yl)chromane-6-carboxamide]	0.8	–
CCC1(CC)CC(=O)N([C@@H]2CCOc3ccc(C(=O)N[C@H]4CC(C)(C)Oc5ccc(C#N)cc54)cc32)C(=N)N1 [Example 21A, (R)-N-((S)-6-cyano-2,2-dimethylchroman-4-yl)-4-(4,4-diethyl-2-imino-6-oxotetrahydropyrimidin-1(2H)-yl)chromane-6-carboxamide]	0.8	–
CCC1(CC)CC(=O)N([C@@H]2CC3(COC3)Oc3ccc(C(=O)N[C@H]4CC(C)(C)Oc5ccccc54)cc32)C(=N)N1 [Example 22A, (R)-4-(4,4-diethyl-2-imino-6-oxotetrahydropyrimidin-1(2H)-yl)-N-((S)-2,2-dimethylchroman-4-yl)spiro[chromane-2,3′-oxetane]-6-carboxamide]	0.7	–
CCC1(CC)CC(=O)N([C@@H]2CC3(COC3)Oc3ccc(C(=O)N[C@@H]4c5ccccc5C[C@H]4O)cc32)C(=N)N1 [Example 23A, (R)-4-(4,4-diethyl-2-imino-6-oxotetrahydropyrimidin-1(2H)-yl)-N-((1R,2R)-2-hydroxy-2,3-dihydro-1H-inden-1-yl)spiro[chromane-2,3′-oxetane]-6-carboxamide]	5	–
CCC1(CC)CC(=O)N([C@@H]2CCOc3ccc(C(=O)N[C@@H]4c5cc(F)ccc5OC(C)(C)[C@H]4O)cc32)C(=N)N1 [Example 25A, (R)-4-(4,4-diethyl-2-imino-6-oxotetrahydropyrimidin-1(2H)-yl)-N-((3S,4R)-6-fluoro-3-hydroxy-2,2-dimethylchroman-4-yl)chromane-6-carboxamide]	0.5	–
CCC1(CC)CC(=O)N([C@@H]2CCOc3c(Cl)cc(C(=O)N[C@@H]4c5ccccc5OC(C)(C)[C@H]4O)cc32)C(=N)N1 [Example 29A, (R)-8-chloro-4-(4,4-diethyl-2-imino-6-oxotetrahydropyrimidin-1(2H)-yl)-N-((3S,4R)-3-hydroxy-2,2-dimethylchroman-4-yl)chromane-6-carboxamide]	1	–
CCC1(CC)CC(=O)N([C@@H]2CCOc3ccc(C(=O)N[C@@H]4c5ccccc5OC(C)(C)[C@H]4O)nc32)C(=N)N1 [Example 30A, (R)-4-(4,4-diethyl-2-imino-6-oxotetrahydropyrimidin-1(2H)-yl)-N-((3S,4R)-3-hydroxy-2,2-dimethylchroman-4-yl)-3,4-dihydro-2H-pyrano[3,2-b]pyridine-6-carboxamide]	0.8	–
CCC1(CC)CC(=O)N([C@@H]2CCOc3ccc(C(=O)N[C@H]4CC(C)(C)Oc5ccccc54)nc32)C(=N)N1 [Example 31B, (R)-4-(4,4-diethyl-2-imino-6-oxotetrahydropyrimidin-1(2H)-yl)-N-((S)-2,2-dimethylchroman-4-yl)-3,4-dihydro-2H-pyrano[3,2-b]pyridine-6-carboxamide]	1	–
CCC1(CC)CC(=O)N([C@@H]2CC(C)(C)Oc3ccc(C(=O)N[C@@H]4c5ccccc5CC4(C)O)cc32)C(=N)N1 (stereo partly drawn) [Example 42A, (4R)-4-(4,4-diethyl-2-imino-6-oxotetrahydropyrimidin-1(2H)-yl)-N-((1R)-2-hydroxy-2-methyl-2,3-dihydro-1H-inden-1-yl)-2,2-dimethylchromane-6-carboxamide]	–	1
CCC1(CC)CC(=O)N([C@@H]2CC(C)(C)Oc3ccc(C(=O)N[C@@H]4c5cc(F)ccc5OC(C)(C)[C@H]4O)cc32)C(=N)N1 [Example 53A, (R)-4-(4,4-diethyl-2-imino-6-oxotetrahydropyrimidin-1(2H)-yl)-N-((3S,4R)-6-fluoro-3-hydroxy-2,2-dimethylchroman-4-yl)-2,2-dimethylchromane-6-carboxamide]	–	0.3
CCC1(CC)CC(=O)N([C@@H]2CCOc3ccc(C(=O)NC4c5ccccc5OC4(C)COC)cc32)C(=N)N1 (stereo partly drawn) [Example 64B, (4R)-4-(4,4-diethyl-2-imino-6-oxotetrahydropyrimidin-1(2H)-yl)-N-(2-(methoxymethyl)-2-methyl-2,3-dihydrobenzofuran-3-yl)chromane-6-carboxamide]	–	0.9
CCC1(CC)CC(=O)N([C@H]2c3cc(C(=O)N[C@@H]4c5ccccc5OC(C)(C)[C@H]4O)ccc3OCC2OC)C(=N)N1 (stereo partly drawn) [Example 67B, (3R,4S)-4-(4,4-diethyl-2-imino-6-oxotetrahydropyrimidin-1(2H)-yl)-N-((3S,4R)-3-hydroxy-2,2-dimethylchroman-4-yl)-3-methoxychromane-6-carboxamide]	–	0.8
